Key:
[1] = system: MCF-7 (breast adenocarcinoma); experiment: SRB cytotoxicity assay, MCF-7; type: cell-based, human; conditions: for EC50: Homo sapiens, MCF7, SRB assay, 96 h of treatment, MCF-7; for Selectivity index (SI) MCF-7: SI = EC50 (NIH 3T3)/EC50 (MCF-7)
Method: (§1) The cytotoxicity of ursolic and betulinic carboxamides 3–30 was determined in sulforhodamine B (SRB) assays.
(§2) The cell lines used were human cancer cell lines: 518A2 (melanoma), A2780 (ovarian carcinoma), HT29 (colon adenocarcinoma), MCF-7 (breast adenocarcinoma), 8505C (thyroid carcinoma) and non-malignant mouse fibroblasts NIH 3T3. Cultures were maintained as monolayers in RPMI 1640 medium with L-glutamine (Capricorn Scientific GmbH, Ebsdorfergrund, Germany) supplemented with 10% heat inactivated fetal bovineserum (Sigma-Aldrich Chemie GmbH, Steinheim, Germany) and penicillin/streptomycin (Capricorn Scientific GmbH, Ebsdorfergrund, Germany) at 37 °C in a humidified atmosphere with 5% CO2.
(§3) The cytotoxicity of the compounds was evaluated using the sulforhodamine-B (Kiton-Red S, ABCR) micro culture colorimetric assay. Cells were seeded into 96-well plates on day 0 at appropriate cell densities to prevent confluence of the cells during the period of experiment. After 24 h, the cells were treated with 6 different concentrations (1, 3, 7, 12, 20 and 30 µM) minimum. The final concentration of DMSO/DMF never exceeded 0.5%, which was non-toxic to the cells. After a 96 h treatment, the supernatant medium from the 96-well plates was discarded, the cells were fixed with 10% trichloroacetic acid (TCA) and allowed to rest at 4 °C. After 24 h fixation, the cells were washed in a strip washer and dyed with SRB solution (100 µL, 0.4% in 1% acetic acid) for about 20 min. After dying, the plates were washed four times with 1% acetic acid to remove the excess of the dye and allowed to air-dry overnight. Tris base solution (200 µL, 10 mM) was added to each well and absorbance was measured at λ = 570 nm using a 96-well plate reader (Tecan Spectra, Crailsheim, Germany). The EC50 values were averaged from three independent experiments performed each in triplicate calculated from semi logarithmic dose response curves applying a non-linear 4P Hills-slope equation (GraphPad Prism5; variables top and bottom were set to 100 and 0, respectively).

[2] = system: non-malignant mouse fibroblasts NIH 3T3; experiment: SRB cytotoxicity assay, NIH 3T3; type: cell-based; conditions: NIH3T3, 96 h of treatment
Method: as §1, §2, §3

[3] = system: HT29 (colon adenocarcinoma); experiment: SRB cytotoxicity assay, HT29; type: cell-based, human; conditions: for EC50: Homo sapiens, HT-29, SRB assay, 96 h of treatment, HT29; for Selectivity index (SI) HT29: SI = EC50 (NIH 3T3)/EC50 (HT29)
Method: as §1, §2, §3

[4] = system: 8505C (thyroid carcinoma); experiment: SRB cytotoxicity assay, 8505C; type: cell-based, human; conditions: for EC50: Homo sapiens, SRB assay, 96 h of treatment, 8505C; for Selectivity index (SI) 8505C: SI = EC50 (NIH 3T3)/EC50 (8505C)
Method: as §1, §2, §3

[5] = system: A2780 (ovarian carcinoma); experiment: SRB cytotoxicity assay, A2780; type: cell-based, human; conditions: for EC50: Homo sapiens, SRB assay, 96 h of treatment, A2780; for Selectivity index (SI) A2780: SI = EC50 (NIH 3T3)/EC50 (A2780)
Method: as §1, §2, §3

518A2 (melanoma) = experiment: SRB cytotoxicity assay, 518A2; type: cell-based, human; conditions: for EC50: Homo sapiens, SRB assay, 96 h of treatment, 518A2; for Selectivity index (SI) 518A2: SI = EC50 (NIH 3T3)/EC50 (518A2)
Method: as §1, §2, §3

| Structure (SMILES) | EC50 [1] | Selectivity index (SI) MCF-7 [1] | EC50 [2] | EC50 [3] | Selectivity index (SI) HT29 [3] | melting point | EC50 [4] | Selectivity index (SI) 8505C [4] | EC50 [5] | Selectivity index (SI) A2780 [5] | EC50 (518A2 (melanoma)) | Selectivity index (SI) 518A2 (518A2 (melanoma)) |
| --- | --- | --- | --- | --- | --- | --- | --- | --- | --- | --- | --- | --- |
| C[C@@H]1CC[C@]2(C(=O)NCCCCN)CC[C@]3(C)C(=CCC4[C@@]5(C)CC[C@H](O)C(C)(C)C5CC[C@]43C)C2[C@H]1C (stereo partly drawn) [Compound 15, (3β)-N-(4-Aminobutyl)-3-hydroxy-urs-12-en-28-amide] | 5.5 ± 1.1 µM | 1.02 | 5.6 ± 0.3 µM | 2.1 ± 0.3 µM | 2.67 | 177 to 180 °C | 10.8 ± 1.2 µM | 0.52 | 5.4 ± 1.4 µM | 1.04 | 9.3 ± 0.1 µM | 0.60 |
| C=C(C)C1CC[C@]2(C(=O)NCCN3CCCC3)CC[C@]3(C)C(CCC4[C@@]5(C)CC[C@H](OC(C)=O)C(C)(C)C5CC[C@]43C)C12 (stereo partly drawn) [Compound 19, (3β)-N-(2-Pyrrolidin-1-ylethyl)-3-acetyloxy-lup-20(29)-en-28-amide] | 1.2 ± 0.2 µM | 1.00 | 1.2 ± 0.07 µM | 0.5 ± 0.08 µM | 2.40 | 143 to 145 °C | 1.6 ± 0.09 µM | 0.75 | 1.4 ± 0.09 µM | 0.86 | 1.5 ± 0.1 µM | 0.80 |
| C=C(C)C1CC[C@]2(C(=O)NCCN3CCCCC3)CC[C@]3(C)C(CCC4[C@@]5(C)CC[C@H](OC(C)=O)C(C)(C)C5CC[C@]43C)C12 (stereo partly drawn) [Compound 20, (3β)-N-(2-Piperidin-1-ylethyl)-3-acetyloxy-lup-20(29)-en-28-amide] | 1.5 ± 0.5 µM | 0.80 | 1.2 ± 0.2 µM | 0.8 ± 0.1 µM | 1.50 | 124 to 127 °C | 3 ± 0.36 µM | 0.40 | 1.6 ± 0.2 µM | 0.75 | 3.1 ± 0.3 µM | 0.39 |
| CC(=O)O[C@H]1CC[C@@]2(C)C(CC[C@]3(C)C2CC=C2C4[C@@H](C)[C@H](C)CC[C@]4(C(=O)NCCOCCN)CC[C@]23C)C1(C)C (stereo partly drawn) [Compound 9, (3β)-N-[2-(2-Aminoethoxy)ethyl]-3-acetyloxy-urs-12-en-28-amide] | 2.3 ± 0.4 µM | 1.35 | 3.1 ± 0.4 µM | 1.6 ± 0.1 µM | 1.93 | 91 to 94 °C | 5.8 ± 0.4 µM | 0.53 | 3.4 ± 0.5 µM | 0.91 | 3.5 ± 0.6 µM | 0.89 |
| C=C(C)C1CC[C@]2(C(=O)NCCN3CCNCC3)CC[C@]3(C)C(CCC4[C@@]5(C)CC[C@H](O)C(C)(C)C5CC[C@]43C)C12 (stereo partly drawn) [Compound 28, (3β)-N-(2-Piperazin-1-ylethyl)-3-hydroxy-lup-20(29)-en-28-amide] | 0.3 ± 0.02 µM | 2.67 | 0.8 ± 0.22 µM | 0.8 ± 0.18 µM | 1.00 | 146 to 148 °C (dec.) | 0.85 ± 0.17 µM | 0.94 | 0.8 ± 0.04 µM | 1.00 | 0.9 ± 0.21 µM | 0.89 |
